The target of test [1] is Peroxisome proliferator-activated receptor gamma/Nuclear receptor coactivator 2 (Homo sapiens, UniProt P37231). It counts as functional.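 Further: agonist potency for raising coactivator recruitment to the receptor.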
Test [2] concerns the target Peroxisome proliferator-activated receptor gamma/Nuclear receptor coactivator 1 (Homo sapiens, UniProt P37231). It counts as functional.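 Further: agonist potency as compounds enhance coactivator SRC-1 recruitment to PPARgamma.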
Test [3] addresses Peroxisome proliferator-activated receptor gamma/Nuclear receptor coactivator 3 (Homo sapiens, UniProt P37231). It counts as functional.
Test [4] addresses Eukaryotic translation initiation factor 4H (Homo sapiens, UniProt Q15056). Put plainly: eIF4H binding inhibition – biochemical, uHTS, fluorescence polarization, translation initiation inhibitor project, primary screen (AID 2012). Background: Fluorescence polarisation rises when a labelled molecule tumbles more slowly, as on binding a larger partner.
Test [5] has as its target Large T antigen (Simian virus 40, UniProt P03070). It counts as functional, Betapolyomavirus macacae.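 Further: Confirmatory-stage PubChem screen for compounds that inhibit SV40 T antigen.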
The target of test [6] is Polyadenylate-binding protein 1 (Homo sapiens, UniProt P11940). Kind of test: blockers of PABP interaction with poly(A) – biochemical, fluorescence polarization, […] (AID 2014).
Test [7] concerns the target Glucose-6-phosphate 1-dehydrogenase (Homo sapiens, UniProt P11413). Kind of test: inhibition of Homo sapiens G6PD, dose series – biochemical, fluorescence, selectivity assay for P. falciparum G6PD inhibitor project, dose response (AID 504792). It counts as functional.
Test [8] has as its target T1, Mucolipin-3 (Homo sapiens, UniProt Q8TDD5).
T1 sequence (Q8TDD5 whole entry): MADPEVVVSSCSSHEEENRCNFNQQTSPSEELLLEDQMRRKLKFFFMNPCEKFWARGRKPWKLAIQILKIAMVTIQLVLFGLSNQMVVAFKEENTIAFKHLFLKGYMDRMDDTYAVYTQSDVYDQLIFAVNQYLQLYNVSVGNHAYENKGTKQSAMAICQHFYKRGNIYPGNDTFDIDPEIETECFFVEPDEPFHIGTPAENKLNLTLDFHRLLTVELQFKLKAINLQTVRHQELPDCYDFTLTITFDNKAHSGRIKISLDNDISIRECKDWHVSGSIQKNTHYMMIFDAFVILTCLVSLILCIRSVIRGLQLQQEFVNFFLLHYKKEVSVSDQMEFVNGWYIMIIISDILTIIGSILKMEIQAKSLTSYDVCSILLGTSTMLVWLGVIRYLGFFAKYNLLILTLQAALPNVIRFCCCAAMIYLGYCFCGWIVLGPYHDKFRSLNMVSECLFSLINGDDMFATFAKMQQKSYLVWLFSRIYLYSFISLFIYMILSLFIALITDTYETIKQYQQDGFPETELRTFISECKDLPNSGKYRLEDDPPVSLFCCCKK
Kind of test: Dose response cell-based high-throughput screening assay for agonists of the transient receptor potential channel ML3 (TRPML3). [Related pubchem assays: 1526, 1424, 1448 ]. It counts as functional.

Test [9] deals with Ion channel NompC (Danio rerio, UniProt Q7T1G6). Put plainly: Fluorescence counterscreen assay for TRPML3 agonists: dose response cell-based high-throughput screening assay to identify agonists of the transient receptor potential channel N1 (TRPN1). [Related pubchem assays: 1526, 1424, 1448 ]. It counts as functional.
Test [10] addresses Protein-tyrosine kinase 2-beta (Homo sapiens, UniProt Q14289).
Test [11] has as its target T2, Heat shock factor protein 1 (Mus musculus, UniProt P38532).
T2 sequence (P38532 whole entry): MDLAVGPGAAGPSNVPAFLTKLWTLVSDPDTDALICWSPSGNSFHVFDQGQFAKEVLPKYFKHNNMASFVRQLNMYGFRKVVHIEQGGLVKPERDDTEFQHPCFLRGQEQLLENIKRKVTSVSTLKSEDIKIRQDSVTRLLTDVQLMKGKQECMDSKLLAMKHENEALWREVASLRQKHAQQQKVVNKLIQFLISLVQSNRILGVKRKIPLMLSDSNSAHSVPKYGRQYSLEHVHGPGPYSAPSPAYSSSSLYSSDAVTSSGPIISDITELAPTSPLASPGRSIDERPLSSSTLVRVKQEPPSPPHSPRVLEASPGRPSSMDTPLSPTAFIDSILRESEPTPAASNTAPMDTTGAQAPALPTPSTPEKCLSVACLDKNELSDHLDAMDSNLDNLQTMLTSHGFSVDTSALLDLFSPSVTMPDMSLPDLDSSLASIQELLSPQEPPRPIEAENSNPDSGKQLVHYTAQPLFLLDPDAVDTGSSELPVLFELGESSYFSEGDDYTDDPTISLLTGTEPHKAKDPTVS
Put plainly: enhancement of HSF1-driven luciferase signal – cell-based, NIH3T3, luminescence, dose retest, confirmation (AID 435004).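 Further: stress induced by proteasome inhibitor MG132 added 30 min after compound; luciferase reporter driven by HSF1 response element in NIH3T3 cells; actives raise luminescence as potentiators of the MG132 stress response.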 It counts as functional.

For test [12], the target named is T3, Estrogen receptor beta (Homo sapiens, UniProt Q92731).
Test [13] concerns the target T3, Estrogen receptor beta. Put plainly: blockers of SRC-3 recruitment to ERβ – biochemical, ELISA, streptavidin-HRP readout, orthogonal assay, confirmation (AID 1060).
The target of test [14] is FAD-linked sulfhydryl oxidase ALR (Homo sapiens, UniProt P55789). Put plainly: ALR-catalysed DTT oxidation blockers – biochemical, H2O2 detection, luminescence, cherry-pick, dose response (AID 493248).
Test [15] concerns the target T4, Cytochrome P450 2D6 (Homo sapiens, UniProt P10635). Kind of test: qHTS Assay for Inhibitors and Substrates of Cytochrome P450 2D6. [Related pubchem assays: 410 ]. It counts as ADME. The conditions noted are these: read-out: Potency. (In qHTS, concentration-response curves come from the screen itself.)
Test [16] has as its target Cytochrome P450 2C19 (Homo sapiens, UniProt P33261). Kind of test: Cytochrome panel assay with activity outcomes. Panel member name: p450-cyp2c19 Compounds with AC50 equal or less than 10 uM are considered active. It counts as functional. The following applies: read-out: AC50.
Test [17] concerns the target T4, Cytochrome P450 2D6.
Test [18] addresses T5, Aminopeptidase N (Plasmodium falciparum FcB1/Columbia, UniProt O96935).
T5 sequence (O96935 whole entry): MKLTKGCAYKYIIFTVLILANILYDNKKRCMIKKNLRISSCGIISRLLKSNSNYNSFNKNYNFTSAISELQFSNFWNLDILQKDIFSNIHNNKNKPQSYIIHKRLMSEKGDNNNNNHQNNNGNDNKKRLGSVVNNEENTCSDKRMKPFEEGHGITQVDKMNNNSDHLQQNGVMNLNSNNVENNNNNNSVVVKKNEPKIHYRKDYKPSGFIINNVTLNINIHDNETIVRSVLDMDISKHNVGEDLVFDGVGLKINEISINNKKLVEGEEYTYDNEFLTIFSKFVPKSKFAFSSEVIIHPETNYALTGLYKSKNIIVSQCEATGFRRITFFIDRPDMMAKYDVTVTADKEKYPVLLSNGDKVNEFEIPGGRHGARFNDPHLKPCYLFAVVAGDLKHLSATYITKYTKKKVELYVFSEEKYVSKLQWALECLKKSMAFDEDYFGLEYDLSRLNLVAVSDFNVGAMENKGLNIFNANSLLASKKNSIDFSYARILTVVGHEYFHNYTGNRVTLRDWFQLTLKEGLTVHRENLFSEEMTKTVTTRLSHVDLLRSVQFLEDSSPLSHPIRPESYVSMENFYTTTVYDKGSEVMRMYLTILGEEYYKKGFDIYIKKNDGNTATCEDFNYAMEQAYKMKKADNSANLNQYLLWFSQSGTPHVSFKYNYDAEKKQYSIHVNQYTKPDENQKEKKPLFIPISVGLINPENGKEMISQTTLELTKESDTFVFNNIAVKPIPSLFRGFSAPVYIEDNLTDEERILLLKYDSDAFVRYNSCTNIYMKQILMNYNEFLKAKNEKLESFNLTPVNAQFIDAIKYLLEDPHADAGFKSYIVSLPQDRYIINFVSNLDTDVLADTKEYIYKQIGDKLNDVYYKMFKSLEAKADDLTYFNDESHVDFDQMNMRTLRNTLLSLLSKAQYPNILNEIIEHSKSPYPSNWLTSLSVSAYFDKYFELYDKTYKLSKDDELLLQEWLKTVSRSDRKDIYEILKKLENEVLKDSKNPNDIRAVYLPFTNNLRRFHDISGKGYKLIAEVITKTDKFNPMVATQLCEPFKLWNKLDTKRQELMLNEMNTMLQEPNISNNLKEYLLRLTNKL
Put plainly: malaria alanyl aminopeptidase activity blockers – biochemical, fluorogenic H-Leu-NHMec substrate, 1536-well (AID 1445). More on the design: species or system Plasmodium falciparum 3D7, 3D7.

The test system of test [19] is Streptococcus sp. 'group A'. Kind of test: Streptococcus pyogenes SK(-)GAS viability under kanamycin – luminescence, BacTiterGlo, confirmation, counter-screen for streptokinase expression inhibitor project, dose response (AID 1900). It counts as functional, organism-based. For orientation: A counterscreen serves to expose hits that act by an unwanted route or on another target.

The target of test [20] is T6, Streptokinase A (Streptococcus pyogenes serotype M1, UniProt P10520).
T6 sequence (P10520 whole entry): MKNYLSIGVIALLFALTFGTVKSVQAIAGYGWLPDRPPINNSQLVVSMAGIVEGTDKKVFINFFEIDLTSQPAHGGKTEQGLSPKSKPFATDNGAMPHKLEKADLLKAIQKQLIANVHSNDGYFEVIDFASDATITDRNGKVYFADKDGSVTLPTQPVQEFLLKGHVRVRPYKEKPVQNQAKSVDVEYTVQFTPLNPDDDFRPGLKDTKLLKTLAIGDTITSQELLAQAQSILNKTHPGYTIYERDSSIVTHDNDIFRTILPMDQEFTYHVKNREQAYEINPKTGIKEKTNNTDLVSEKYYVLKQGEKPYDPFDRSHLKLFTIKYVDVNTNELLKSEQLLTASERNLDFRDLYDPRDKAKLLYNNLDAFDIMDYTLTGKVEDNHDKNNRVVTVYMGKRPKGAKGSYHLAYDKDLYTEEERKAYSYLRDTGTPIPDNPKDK
Put plainly: viability-normalized secreted streptokinase activity reduction – plasminogen activation absorbance, OD405, dose response (AID 1914).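 Further: secreted streptokinase activity via plasminogen activation per viability signal from cell pellet.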 It counts as functional, Streptococcus pyogenes M1 GAS.

A short description of test [21]: Trypanosoma cruzi growth suppression in host cells – NIH3T3 host cells, beta-gal luminescence, confirmation (AID 2044).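 Further: intracellular parasites grown in NIH/3T3 mouse fibroblasts as host cells; luminescent beta-galactosidase reporter signal from transgenic T. cruzi replicating inside host cells; inhibitors lower the luminescence signal.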 It counts as functional, cell-based.
The nature of test [22]: NIH3T3 cell viability loss – ATP luminescence, mouse fibroblasts, counter-screen, dose response (AID 2010).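 Further: cells exposed to compound for about 90 hours before reading.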 It counts as functional, cell-based.
In test [23] the test system is Streptococcus. Put plainly: GAS UMAA2166 growth inhibition – luminescence, BacTiterGlo, counter-screen for streptokinase expression inhibitor project, dose response (AID 1915).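 Further: potency for reduction of bacterial viability or growth.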 It counts as functional, organism-based.
Test [24] has as its target Cytochrome P450 3A4 (Homo sapiens, UniProt P08684). The conditions noted are these: Potency.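 Further: confirmatory qHTS run detecting inhibitors and substrates of CYP3A4.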

The structures appear in SMILES notation. Activity calls are given as the source filed them.

Sequence of Peroxisome proliferator-activated receptor gamma/Nuclear receptor coactivator 3 (P37231 whole entry): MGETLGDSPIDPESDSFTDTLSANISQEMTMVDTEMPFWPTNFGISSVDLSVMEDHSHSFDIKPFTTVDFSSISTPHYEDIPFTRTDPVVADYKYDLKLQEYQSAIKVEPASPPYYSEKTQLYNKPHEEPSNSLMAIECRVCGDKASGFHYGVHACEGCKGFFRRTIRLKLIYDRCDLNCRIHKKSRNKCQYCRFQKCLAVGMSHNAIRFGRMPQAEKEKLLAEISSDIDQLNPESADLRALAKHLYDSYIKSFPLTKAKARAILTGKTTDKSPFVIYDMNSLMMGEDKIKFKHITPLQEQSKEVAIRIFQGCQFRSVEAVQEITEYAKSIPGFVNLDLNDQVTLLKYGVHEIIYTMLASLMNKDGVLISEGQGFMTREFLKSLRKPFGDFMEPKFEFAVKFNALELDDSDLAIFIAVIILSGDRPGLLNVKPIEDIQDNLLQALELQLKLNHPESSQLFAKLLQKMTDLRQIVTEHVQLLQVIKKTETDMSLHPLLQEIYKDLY
Sequence of Peroxisome proliferator-activated receptor gamma/Nuclear receptor coactivator 3 (Q9Y6Q9 whole entry, further chain): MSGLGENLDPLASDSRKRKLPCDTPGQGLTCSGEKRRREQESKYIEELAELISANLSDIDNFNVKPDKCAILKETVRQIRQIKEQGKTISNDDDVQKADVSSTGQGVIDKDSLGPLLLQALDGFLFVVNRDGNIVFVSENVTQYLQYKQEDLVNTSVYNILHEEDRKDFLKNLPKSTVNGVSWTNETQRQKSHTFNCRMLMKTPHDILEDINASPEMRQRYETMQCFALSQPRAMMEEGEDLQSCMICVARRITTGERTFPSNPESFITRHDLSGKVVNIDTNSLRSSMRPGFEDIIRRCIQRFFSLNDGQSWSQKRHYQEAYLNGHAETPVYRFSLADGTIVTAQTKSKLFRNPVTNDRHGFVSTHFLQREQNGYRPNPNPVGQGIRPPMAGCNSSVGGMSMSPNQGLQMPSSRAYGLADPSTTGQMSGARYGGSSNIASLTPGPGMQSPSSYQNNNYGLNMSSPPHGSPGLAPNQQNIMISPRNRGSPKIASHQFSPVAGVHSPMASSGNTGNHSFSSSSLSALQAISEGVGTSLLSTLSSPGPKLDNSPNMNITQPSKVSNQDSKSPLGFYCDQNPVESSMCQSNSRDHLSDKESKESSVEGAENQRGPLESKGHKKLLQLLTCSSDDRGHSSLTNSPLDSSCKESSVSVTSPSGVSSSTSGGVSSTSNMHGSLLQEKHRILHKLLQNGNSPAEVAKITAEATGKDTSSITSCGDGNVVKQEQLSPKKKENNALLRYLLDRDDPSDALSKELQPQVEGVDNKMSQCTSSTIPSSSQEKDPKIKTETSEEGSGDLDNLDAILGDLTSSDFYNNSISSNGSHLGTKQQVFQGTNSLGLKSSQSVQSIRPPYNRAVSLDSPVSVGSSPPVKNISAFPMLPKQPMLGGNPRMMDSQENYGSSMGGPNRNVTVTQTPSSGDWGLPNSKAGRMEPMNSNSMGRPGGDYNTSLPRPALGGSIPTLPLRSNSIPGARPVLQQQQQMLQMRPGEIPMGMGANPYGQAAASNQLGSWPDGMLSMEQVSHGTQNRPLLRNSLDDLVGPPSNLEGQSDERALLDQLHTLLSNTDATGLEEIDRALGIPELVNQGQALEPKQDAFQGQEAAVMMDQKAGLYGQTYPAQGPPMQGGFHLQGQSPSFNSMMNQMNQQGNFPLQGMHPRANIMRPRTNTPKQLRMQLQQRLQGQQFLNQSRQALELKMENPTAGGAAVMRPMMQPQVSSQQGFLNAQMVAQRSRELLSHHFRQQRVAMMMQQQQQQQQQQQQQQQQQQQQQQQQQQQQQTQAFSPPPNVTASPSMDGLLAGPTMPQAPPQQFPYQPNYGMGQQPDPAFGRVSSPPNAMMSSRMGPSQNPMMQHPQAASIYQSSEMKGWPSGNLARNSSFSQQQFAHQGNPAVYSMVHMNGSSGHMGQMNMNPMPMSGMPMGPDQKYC
Sequence of Peroxisome proliferator-activated receptor gamma/Nuclear receptor coactivator 1 (P37231 whole entry): as the sequence (P37231 whole entry) above
Sequence of Peroxisome proliferator-activated receptor gamma/Nuclear receptor coactivator 1 (Q15788 whole entry, further chain): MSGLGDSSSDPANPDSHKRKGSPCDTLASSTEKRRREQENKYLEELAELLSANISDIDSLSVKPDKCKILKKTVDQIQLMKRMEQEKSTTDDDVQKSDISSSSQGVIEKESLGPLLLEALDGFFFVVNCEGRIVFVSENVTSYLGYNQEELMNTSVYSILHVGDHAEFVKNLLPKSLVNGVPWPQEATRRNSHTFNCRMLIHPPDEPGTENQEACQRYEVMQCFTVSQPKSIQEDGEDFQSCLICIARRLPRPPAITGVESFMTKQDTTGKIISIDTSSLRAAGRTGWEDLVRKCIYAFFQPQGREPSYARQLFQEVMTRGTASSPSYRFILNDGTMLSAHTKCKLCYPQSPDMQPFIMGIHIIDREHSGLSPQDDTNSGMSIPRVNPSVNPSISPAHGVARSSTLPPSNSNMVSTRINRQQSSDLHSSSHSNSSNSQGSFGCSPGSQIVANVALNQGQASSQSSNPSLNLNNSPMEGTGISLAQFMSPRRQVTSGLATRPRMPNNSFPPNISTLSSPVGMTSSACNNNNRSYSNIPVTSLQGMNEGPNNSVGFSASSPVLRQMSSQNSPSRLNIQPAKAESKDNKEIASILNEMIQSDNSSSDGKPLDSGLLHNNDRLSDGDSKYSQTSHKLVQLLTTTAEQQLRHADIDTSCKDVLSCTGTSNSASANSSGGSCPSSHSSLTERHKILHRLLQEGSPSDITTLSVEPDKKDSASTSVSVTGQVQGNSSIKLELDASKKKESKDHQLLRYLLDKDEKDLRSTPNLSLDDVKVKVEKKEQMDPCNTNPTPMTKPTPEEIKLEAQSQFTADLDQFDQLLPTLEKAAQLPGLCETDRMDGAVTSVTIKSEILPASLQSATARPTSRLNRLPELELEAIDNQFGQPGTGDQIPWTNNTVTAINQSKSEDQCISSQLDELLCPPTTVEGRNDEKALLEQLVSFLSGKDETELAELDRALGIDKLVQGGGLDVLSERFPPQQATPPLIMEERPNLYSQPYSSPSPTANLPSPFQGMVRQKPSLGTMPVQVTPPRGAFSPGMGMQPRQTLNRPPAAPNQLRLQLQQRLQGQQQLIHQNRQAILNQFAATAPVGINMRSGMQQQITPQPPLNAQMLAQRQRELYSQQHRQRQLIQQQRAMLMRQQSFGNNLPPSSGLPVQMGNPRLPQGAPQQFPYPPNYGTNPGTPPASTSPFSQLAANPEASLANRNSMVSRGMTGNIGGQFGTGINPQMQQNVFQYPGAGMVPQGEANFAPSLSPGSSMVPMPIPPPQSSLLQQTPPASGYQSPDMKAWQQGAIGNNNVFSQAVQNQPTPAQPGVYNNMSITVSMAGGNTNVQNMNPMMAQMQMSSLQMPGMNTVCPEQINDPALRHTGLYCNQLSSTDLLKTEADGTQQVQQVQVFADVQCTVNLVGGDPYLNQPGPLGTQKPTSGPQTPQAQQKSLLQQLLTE
T3 sequence (Q92731 whole entry): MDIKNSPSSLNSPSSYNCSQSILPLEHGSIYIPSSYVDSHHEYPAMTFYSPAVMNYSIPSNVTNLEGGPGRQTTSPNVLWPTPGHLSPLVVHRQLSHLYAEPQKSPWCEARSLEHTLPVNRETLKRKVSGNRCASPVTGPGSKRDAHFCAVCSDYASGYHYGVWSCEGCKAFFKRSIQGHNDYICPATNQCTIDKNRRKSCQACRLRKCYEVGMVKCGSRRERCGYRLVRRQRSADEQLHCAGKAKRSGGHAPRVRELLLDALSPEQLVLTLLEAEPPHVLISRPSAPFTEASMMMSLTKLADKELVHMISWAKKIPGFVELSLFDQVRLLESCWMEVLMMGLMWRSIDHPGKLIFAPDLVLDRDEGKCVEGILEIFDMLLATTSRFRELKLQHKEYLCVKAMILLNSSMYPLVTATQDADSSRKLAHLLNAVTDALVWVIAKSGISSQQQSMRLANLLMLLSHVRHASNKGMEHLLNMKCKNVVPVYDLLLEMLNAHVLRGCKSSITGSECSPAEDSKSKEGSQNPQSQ
T4 sequence (P10635 whole entry): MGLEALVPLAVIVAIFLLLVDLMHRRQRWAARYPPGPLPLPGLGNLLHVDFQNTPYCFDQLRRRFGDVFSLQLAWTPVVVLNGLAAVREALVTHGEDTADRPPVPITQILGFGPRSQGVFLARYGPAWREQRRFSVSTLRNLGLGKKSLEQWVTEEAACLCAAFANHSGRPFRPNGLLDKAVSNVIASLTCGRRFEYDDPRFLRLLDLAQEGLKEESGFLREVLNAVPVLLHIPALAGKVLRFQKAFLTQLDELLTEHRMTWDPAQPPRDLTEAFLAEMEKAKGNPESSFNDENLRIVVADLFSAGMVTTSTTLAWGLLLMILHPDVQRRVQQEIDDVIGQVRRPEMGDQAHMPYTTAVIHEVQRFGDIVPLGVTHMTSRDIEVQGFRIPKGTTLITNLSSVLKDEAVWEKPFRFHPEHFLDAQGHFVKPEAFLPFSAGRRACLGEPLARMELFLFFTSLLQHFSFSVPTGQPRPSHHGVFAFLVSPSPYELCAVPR

Regarding `O=C(Nc1ccc2oc(-c3ccncc3)nc2c1)c1c(F)c(F)c(F)c(F)c1F`, the EC50 (usually the concentration that produces a half-maximal response) in test [1] is recorded as 25.6 µM (not active); in [2] it was 25.8 µM (not active); in test [3], 28.9 µM (not active).

For `O=C(CN1CCN(c2ccc(O)cc2)CC1)Nc1cc(S(=O)(=O)N2CCOCC2)ccc1Cl`, the IC50 (in general, the concentration that inhibits the measured activity by half) in test [4] is 72.2 µM (active); in test [5], 17 µM (active); in test [6], > 100 µM (inactive); in test [7] it was > 80 µM (inactive).

`Cc1onc(-c2ccccc2)c1C(=O)N(Cc1ccco1)Cc1cccs1`: the EC50 is listed as 12.4 µM (not active) in [8] and > 29.9 µM (not active) in test [9].

`CCOC(=O)c1sc2c(c1C)C(c1cccs1)C1=C(O)CCCC1=N2` (configuration not stated): the IC50 in test [10] is recorded as > 69.5 µM (not active). For the same molecule, the EC50 in [11] was 80.5 µM (active).

`CC(=O)NC12CC3CC(C1)CC(C(=O)OCC(=O)Nc1ncc(Cl)c(C)c1Cl)(C3)C2`: the IC50 is 9.36 µM (active) in test [12] and < 0.023 µM (not active) in test [13].

As for `CC1(C)Cc2cccc(Oc3ccc(S(=O)(=O)N4CCCCC4)cn3)c2O1`, the EC50 in test [8] was 9.27 µM (active); in test [9] it was > 29.9 µM (not active).

Take `O=C(c1ccco1)N1CCN=C1SCc1cccnc1`: in [14], the AC50 is 1.19 µM (active).

Turning to `Cc1cc2nc3c(=O)[nH]c(=O)nc-3n(CC(O)C(O)C(O)CO)c2cc1C` (configuration not stated) [RIBOFLAVIN], the AC50 in test [15] was 31.6 µM (inconclusive); in test [16], 6.31 µM (inconclusive); in test [17], 12.6 µM (inconclusive).

With `O=C(CCCN1CCC2(CC1)C(=O)N(CCc1ccc(N=C=S)cc1)CN2c1ccccc1)c1ccc(F)cc1`, in [15], the AC50 is 15.8 µM (inconclusive).

As for `Cc1csc(C(C#N)C(=O)c2ccncc2)n1` (configuration not stated), the EC50 in test [1], in test [2] and in [3] was > 79.4 µM (not active) each time. The IC50 in test [12] is 13.9 µM (active); in test [13], > 109 µM (not active).

For the molecule `CC1(c2ccc(OC(F)F)cc2)NC(=O)N(CC(=O)Nc2ccc(S(N)(=O)=O)cc2)C1=O` (configuration not stated), in test [18], the IC50 is 28.3 µM (active).

Turning to `O=C1NC(=S)NC(=O)C1=NNc1cc2c(cc1[N+](=O)[O-])OCO2`, in test [18], the IC50 was 26.9 µM (active).

In the case of `COc1ccc(S(=O)(=O)NC2CCCCC2)c(C)c1C`, the values for the concentration for a half-maximal effect (EC50) in [8] and in test [9] were > 3.32 µM (not active) and > 29.9 µM (not active), respectively.

As for `CCN(CCNS(=O)(=O)c1ccc2nc(O)sc2c1)c1ccccc1`, the AC50 in test [14] is 1.17 µM (active).

Regarding `CCC(=O)NC(=S)Nc1ccc(NC(=S)NC(=O)c2ccccc2)cc1`, the EC50 in test [1] is > 79.4 µM (not active); in test [2], > 79.4 µM (not active); in test [19], 1.23 µM (active); in [3], > 79.4 µM (not active); in test [20] it was > 150 µM (not active); in test [21], 0.553 µM (active). For the same molecule, the EC50 in test [22] is > 60 µM (not active); in [23], 38 µM (active).

For `CC12C=C(/C=C/c3ccccc3)C(C)(C1)C(c1ccccc1)CC2=O` (configuration not stated), the AC50 in [15] and in test [24] was 3.16 µM (inconclusive) in each case.

`C[N+]1(C)C2CCC1CC(OC(=O)c1ccco1)C2` (configuration not stated): the values for the IC50 in [4] and in [6] were > 100 µM (inactive) and 7.77 µM (active), respectively.

The record behind these values is ChEMBL document CHEMBL1201862, “PubChem BioAssay data set” (2004).
